Assay results reported in US20050049200A1, “LHRH-antagonists in the treatment of fertility disorders” (priority 1996, published 2005).
“Also recorded” adds a separate entry of the source. Where a SMILES comes first, the peptide text is derived from it. [ ]: non-standard residue; d: D form. dPhe(4-Cl) = N[C@H](Cc1ccc(Cl)cc1)C(=O)O; d2Nal = N[C@H](Cc1ccc2ccccc2c1)C(=O)O; dCit = NC(=O)NCCC[C@@H](N)C(=O)O; d3Pal = N[C@H](Cc1cccnc1)C(=O)O

Legend:
[1] = tested on: patients undergoing COH for IVF/ICSI; experiment: Cetrorelix combined with clomifen citrate and gonadotrophins for hormonal stimulation (COH) for IVF/ICSI; assay type: in vivo; settings: for fertilization rate: ICSI
Method: Combination of the GnRH antagonist Cetrorelix, clomifen citrate(CC) and gonadotrophins for hormonal stimulation for IVF/ICSI. COH was started on day 2 after spontaneous menstrual bleeding using 100 mg CC per day for 5 or 7 days. The antagonist Cetrorelix (0.25 mg s.c.) was given starting on stimulation day 6 combined with either urinary hMG or recombinant FSH (3 ampoules/d) in a prospective randomized way. After two days of gonadotrophin injection, the dose was individualized. Human chorionic gonadotropin was given for ovulation induction, if at least 3 follicles were ≧17 mm in diameter. In total, 30 patients were included in the study. 15 were randomized in each group. Intra cytoplasmatic sperm injection (ICSI) was applied in each case.

[2] = tested on: pituitary / follicular growth; experiment: Animal experiments and clinical studies with Cetrorelix (unstimulated follicular growth, pituitary responsiveness); assay type: in vivo
Text: These low dosage levels present new possibilities for manipulating the time of ovulation during a normal, not exogenous gonadotropin-stimulated cycle, without affecting the viability of the growing follicle. In case of inadequate follicular growth related to treatment with LHRH-antagonists, low dose and short term administration of gonadotrophin or other trophic compounds will compensate for these effects. Subsequently, by stopping the LHRH-antagonist treatment, it is possible to let the normal ovulation occur or to induce ovulation by exogenous manipulation, if necessary. Ovulation induction was induced by the administration of standard HCG or by administration of LHRH and/or LHRH agonistic analogs. These described treatment alternatives are a departure from existing protocols, since they are possible only if preceded by treatment for LH-surge-control with an LHRH-antagonist. In animal and clinical studies with Cetrorelix it was shown that the responsiveness of the pituitary to LHRH or agonistic analogs is preserved under these conditions of treatment. Without this treatment, the pituitary cannot respond after agonistic pretreatment for LH-surge control due to receptor down-regulation. In addition, the possible use of ovulation inducing agents other than HCG results in a-reduced incidence of ovarian hyperstimulation syndrome.

[3] = tested on: patients undergoing COS/ART; experiment: Phase II clinical trial of Cetrorelix in controlled ovarian stimulation (COS/ART); assay type: in vivo
Method: The results of a phase II clinical trial are shown in Table I. A total of […] patients were treated. […] During multiple dosing, the mean days of Cetrorelix application is 6 days. 25 babies were born by the end of May 1996 (7 following multiple doses; 18 following single/dual doses). 238 patients were treated with Cetrorelix by subcutaneous injection of Cetrorelix […]-Lyophilisat. 134 patients were treated with multiple doses and 104 patients with single or dual doses. The multiple doses are 0.25 mg/day or higher. The single dose was 3 mg or higher. […]

premature LH surges = settings: short term treatment; cited from earlier work
[4] = all phase II patients, both regimens
[5] = multiple dosing, 3-7/14 days, phase II dose finding
[6] = single dose (1 day), phase II dose finding

CC(=O)N[C@H](Cc1ccc2ccccc2c1)C(=O)N[C@H](Cc1ccc(Cl)cc1)C(=O)N[C@H](Cc1cccnc1)C(=O)N[C@@H](CO)C(=O)N[C@@H](Cc1ccc(O)cc1)C(=O)N[C@H](CCCNC(N)=O)C(=O)N[C@@H](CC(C)C)C(=O)N[C@@H](CCCNC(=N)N)C(=O)N1CCC[C@H]1C(=O)N[C@H](C)C(N)=O [Cetrorelix] (Ac-[d2Nal][dPhe(4-Cl)][d3Pal]SY[dCit]LRP[dA]-NH2)
ovarian hyperstimulation syndrome (OHSS) ([1]; both groups, 30 patients): No case
oocytes retrieved per cycle ([1]; hMG group): 7.7±3.8
fertilization rate ([1]; hMG group): 42%
oocytes retrieved per cycle ([1]; recombinant FSH group): 6.4±2.6
fertilization rate ([1]; recombinant FSH group): 53%
effect on normal, unstimulated follicular growth ([2]; multiple or single injections, extremely low dosage levels): arrest of the normal, unstimulated follicular growth
responsiveness of the pituitary to LHRH or agonistic analogs ([2]; under treatment for LH-surge control): preserved
FSH secretion ([3]; FIG. 1): maintained at a natural level
individual estrogen development ([3]; FIG. 1): not affected
pregnancies obtained [3, 4]: 71
pregnancy rate [3, 4]: 30%
babies born by the end of May 1996 ([3]; both regimens together): 25
babies born by the end of May 1996 ([3]; following multiple doses): 7
babies born by the end of May 1996 ([3]; following single/dual doses): 18
pregnancy rate ([3]; multiple dose regimen): 28.4%
pregnancies ([3]; multiple dose regimen, of 134 patients): 38
premature LH surge ([3]; multiple doses of 0.25 mg or higher or single dose of 3 mg or higher, s.c.): No premature LH surge; also recorded: absolute prevention of any premature LH surge
min. effective dose (Dose/Day) [3, 5]: 0.25 min. effect, dose mg
no effect dose (Dose/Day) [3, 5]: 0.10 no effect. dose mg
min. effective dose [3, 6]: 3 min. effective dose mg
no effect dose [3, 6]: 2 no effect. Dose mg
duration of effect to prevent a premature LH surge ([3]; single dose regimen): up to 6.5 days
pregnancy rate ([3]; single/dual dosage regimen): 31.7%
pregnancies ([3]; single/dual dosage regimen, of 104 patients): 33
premature LH surges during stimulated cycles (premature LH surges): complete avoidance of premature LH surges
